Assay results from US20230143612A1 (Arbutus Biopharma Corporation, priority 2020, published 2023).

Each compound was assayed against PD-L1 His protein / PD-1 Fc protein (Homo sapiens, UniProt Q9NZQ7) (assay: HTRF Assay (PD-1/PD-L1 interaction)). Conditions: PD-L1 His 6 nM, PD-1 Fc 6 nM.
PD-L1 His protein / PD-1 Fc protein, sequence (Q9NZQ7 19-238 limits assumed): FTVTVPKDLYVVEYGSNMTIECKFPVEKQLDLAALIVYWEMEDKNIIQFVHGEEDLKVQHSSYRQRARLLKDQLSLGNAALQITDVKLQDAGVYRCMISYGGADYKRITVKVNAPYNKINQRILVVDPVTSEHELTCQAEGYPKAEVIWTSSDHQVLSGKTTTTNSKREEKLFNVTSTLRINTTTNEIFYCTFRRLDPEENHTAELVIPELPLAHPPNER
Format: binding
How it was run: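 Compounds tested from 20 μM down to 0.001 μM (3-fold) against 6 nM PD-L1 His and 6 nM PD-1 Fc, 15 min room temperature incubation. Detection after 1 h at room temperature with Tb cryptate anti-6HIS and XL665 anti-human IgG reagents (mixture at 0.35 nM and 6.7 nM), HTRF signal.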
`COc1nc(-c2cccc(-c3cccc(-c4ccn5c(=O)c(CNCCN6CCCC6=O)cnc5c4)c3Cl)c2Cl)ccc1CNC[C@@H]1CCC(=O)N1` [Example 219, 8-[2-Chloro-3-[2-chloro-3-[6-methoxy-5-[[[(2S)-5-oxopyrrolidin-2-yl]methylamino]methyl]-2-pyridyl]phenyl]phenyl]-3-[[2-(2-oxopyrrolidin-1-yl)ethylamino]methyl]pyrido[1,2-a]pyrimidin-4-one] was tested, and the IC50 was 0.7 nM.
Work on `COc1cc(-c2cccc(-c3cccc(-c4cc5c(c(OC)c4)CN(C[C@@H]4CCC(=O)N4)CC5)c3Cl)c2Cl)cc2c1CN(C[C@@H]1CCC(=O)N1)CC2` [Example 394, (5S,5'S)-5,5′-((6,6′-(2,2′-Dichloro-[1,1′-biphenyl]-3,3′-diyl)bis(8-methoxy-3,4-dihydroisoquinoline-6,2(1H)-diyl))bis(methylene))bis(pyrrolidin-2-one)] yielded an IC50 of 71 nM.
For `COc1cc(-c2cccc(-c3cccc(-c4ccn5c(=O)c(CNC[C@@H]6CCC(=O)N6)cnc5c4)c3Cl)c2Cl)cc(F)c1CNC[C@@H]1CCC(=O)N1` [Example 104, 8-(2,2′-Dichloro-3″-fluoro-5″-methoxy-4″-(((((S)-5-oxopyrrolidin-2-yl)methyl)amino)methyl)-[1,1′:3′,1″-terphenyl]-3-yl)-3-(((((S)-5-oxopyrrolidin-2-yl)methyl)amino)methyl)-4H-pyrido[1,2-a]pyrimidin-4-one], the IC50 was 8.8 nM.
`COc1cc(Cl)c(CNC[C@H]2CCC(=O)N2)c(-c2cccc(-c3cccc(-c4ccn5c(=O)c(CNC[C@@H]6CCC(=O)N6)cnc5c4)c3Cl)c2Cl)n1` [Example 337, 8-[2-chloro-3-[2-chloro-3-[4-chloro-6-methoxy-3-[[[(2R)-5-oxopyrrolidin-2-yl]methylamino]methyl]-2-pyridyl]phenyl]phenyl]-3-[[[(2S)-5-oxopyrrolidin-2-yl]methylamino]methyl]pyrido[1,2-a]pyrimidin-4-one] showed an IC50 of 47 nM.
With `Cc1c(-c2ccn3c(=O)c(CNC[C@@H]4CCC(=O)N4)cnc3c2)cccc1-c1cccc(-c2ccc(CNC[C@@H]3CCC(=O)N3)c(N(C)C)n2)c1Cl` [Example 64, 8-(2′-Chloro-3′-(6-(dimethylamino)-5-(((((S)-5-oxopyrrolidin-2-yl)methyl)amino)methyl)pyridin-2-yl)-2-methyl-[1,1′-biphenyl]-3-yl)-3-(((((S)-5-oxopyrrolidin-2-yl)methyl)amino)methyl)-4H-pyrido[1,2-a]pyrimidin-4-one] the IC50 was 37 nM.
Work on `Cc1c(/C=C(\F)c2ccc(CNCCO)cn2)cccc1-c1cccc(-c2ccn3c(=O)c(CNCCO)cnc3c2)c1C` [Example 21, (Z)-8-(3′-(2-Fluoro-2-(5-(((2-hydroxyethyl)amino)methyl)pyridin-2-yl)vinyl)-2,2′-dimethyl-[1,1′-biphenyl]-3-yl)-3-(((2-hydroxyethyl)amino)methyl)-4H-pyrido[1,2-a]pyrimidin-4-one] yielded an IC50 of 4.8 nM.
For `COc1nc(-c2cccc(-c3cccc(-c4ccn5c(=O)c(CNCCc6c[nH]cn6)cnc5c4)c3Cl)c2Cl)ccc1CNC[C@@H]1CCC(=O)N1` [Example 215, 8-[2-chloro-3-[2-chloro-3-[6-methoxy-5-[[[(2S)-5-oxopyrrolidin-2-yl]methylamino]methyl]-2-pyridyl]phenyl]phenyl]-3-[[2-(1H-imidazol-4-yl)ethylamino]methyl]pyrido[1,2-a]pyrimidin-4-one], the IC50 was 8 nM.
`Cc1c(COc2cc(OCc3cncc(C#N)c3)c(CNC[C@@H]3CCC(=O)N3)cc2Cl)cccc1-c1cccc(-c2ccn3c(=O)c(CNC[C@@H]4CCC(=O)N4)ccc3c2)c1C` [Example 24, 5-((4-Chloro-5-((2,2′-dimethyl-3′-(4-oxo-3-(((((S)-5-oxopyrrolidin-2-yl)methyl)amino)methyl)-4H-quinolizin-8-yl)-[1,1′-biphenyl]-3-yl)methoxy)-2-(((((S)-5-oxopyrrolidin-2-yl)methyl)amino)methyl)phenoxy)methyl)nicotinonitrile] was tested, and the IC50 was 0.5 nM.
In the case of `COc1nc(-c2cccc(-c3cccc(-c4ccn5c(=O)c(CN6CC7(CC(O)C7)C6)cnc5c4)c3Cl)c2Cl)ccc1CNC[C@@H]1CCC(=O)N1` [Example 346, (S)-8-(2,2′-Dichloro-3′-(6-methoxy-5-((((5-oxopyrrolidin-2-yl)methyl)amino)methyl)pyridin-2-yl)-[1,1′-biphenyl]-3-yl)-3-((6-hydroxy-2-azaspiro[3.3]heptan-2-yl)methyl)-4H-pyrido[1,2-a]pyrimidin-4-one], the IC50 is reported as 1300 nM.
With `COC(=O)c1cnc(-c2cnc3cc(-c4cccc(-c5cccc(-c6ccc(CNC[C@@H]7CCC(=O)N7)c(OC)n6)c5Cl)c4Cl)ccn3c2=O)[nH]1` [Example 167, methyl (S)-2-(8-(2,2′-dichloro-3′-(6-methoxy-5-((((5-oxopyrrolidin-2-yl)methyl)amino)methyl)pyridin-2-yl)-[1,1′-biphenyl]-3-yl)-4-oxo-4H-pyrido[1,2-a]pyrimidin-3-yl)-1H-imidazole-5-carboxylate] the IC50 was 0.5 nM.
Compound `COc1nc(-c2cccc(-c3cccc(-c4ccn5c(=O)c(CNC[C@@H]6CCC(=O)N6)cnc5c4)c3Cl)c2Cl)ccc1CNC[C@@H](C)O` [Example 198, 8-(2,2′-Dichloro-3′-(5-((((R)-2-hydroxypropyl)amino)methyl)-6-methoxypyridin-2-yl)-[1,1′-biphenyl]-3-yl)-3-(((((S)-5-oxopyrrolidin-2-yl)methyl)amino)methyl)-4H-pyrido[1,2-a]pyrimidin-4-one] has an IC50 of 0.3 nM.
`O=C1CC[C@@H](CNCc2cnc3cc(-c4cccc(-c5cccc(-c6ccc7c(n6)OCCN(CCO)C7)c5Cl)c4Cl)ccn3c2=O)N1` [Example 268, (S)-8-(2,2′-Dichloro-3′-(4-(2-hydroxyethyl)-2,3,4,5-tetrahydropyrido[3,2-f][1,4]oxazepin-8-yl)-[1,1′-biphenyl]-3-yl)-3-((((5-oxopyrrolidin-2-yl)methyl)amino)methyl)-4H-pyrido[1,2-a]pyrimidin-4-one] was tested, and the IC50 was 710 nM.
Work on `COc1nc(-c2cccc(-c3cccc(-c4cc5c(=O)n(C)c(CN6CC7(C6)CN(C(C)=O)C7)nn5c4)c3Cl)c2Cl)ccc1CNC[C@@H]1CCC(=O)N1` [Example 460, 2-[(2-Acetyl-2,6-diazaspiro[3.3]heptan-6-yl)methyl]-6-[2-chloro-3-[2-chloro-3-[6-methoxy-5-[[[(2S)-5-oxopyrrolidin-2-yl]methylamino]methyl]-2-pyridyl]phenyl]phenyl]-3-methyl-pyrrolo[2,1-f][1,2,4]triazin-4-one] yielded an IC50 of 9.9 nM.
With `COc1nc(-c2cccc(-c3cccc(-c4ccc5nn(CCCN(CC(C)C)CC(C)C)c(=O)n5c4)c3Cl)c2Cl)ccc1CNC[C@@H]1CCC(=O)N1` [Example 392, (S)-6-(2,2′-Dichloro-3′-(6-methoxy-5-((((5-oxopyrrolidin-2-yl)methyl)-amino)-methyl)pyridin-2-yl)-[1,1′-biphenyl]-3-yl)-2-(3-(diisobutylamino)propyl)-[1,2,4]triazolo[4,3-a]pyridin-3(2H)-one] the IC50 was 6.7 nM.
For `CNC(=O)C1(NCc2cc(=O)n3ccc(-c4cccc(-c5cccc(-c6ccc(CNC[C@@H]7CCC(=O)N7)c(OC)n6)c5Cl)c4Cl)cc3n2)CC1` [Example 349, (S)-1-(((8-(2,2′-Dichloro-3′-(6-methoxy-5-((((5-oxopyrrolidin-2-yl)methyl)amino)methyl)pyridin-2-yl)-[1,1′-biphenyl]-3-yl)-4-oxo-4H-pyrido[1,2-a]pyrimidin-2-yl)methyl)amino)-N-methylcyclopropanecarboxamide], the IC50 was 0.2 nM.
For `COc1nc(-c2cccc(-c3cccc(-c4ccc5nc(CN[C@H]6C[C@](C)(O)C6)cc(=O)n5c4)c3Cl)c2Cl)ccc1CNC[C@@H]1CCC(=O)N1` [Example 325, 7-(2,2′-dichloro-3′-(6-methoxy-5-(((((S)-5-oxopyrrolidin-2-yl)methyl)amino)methyl)pyridin-2-yl)-[1,1′-biphenyl]-3-yl)-2-((((1r,3r)-3-hydroxy-3-methylcyclobutyl)amino)methyl)-4H-pyrido[1,2-a]pyrimidin-4-one], the IC50 was 0.1 nM.
`COc1nc(-c2cccc(-c3cccc(-c4ccn5c(=O)c(CNC[C@H]6C[C@H]6CO)cnc5c4)c3Cl)c2Cl)ccc1CNC[C@@H]1CCC(=O)N1` (racemic) [Example 225, 8-(2,2′-dichloro-3′-(6-methoxy-5-(((((S)-5-oxopyrrolidin-2-yl)methyl)-amino)-methyl)-pyridin-2-yl)-[1,1′-biphenyl]-3-yl)-3-(((((1S,2R)-2-(hydroxymethyl)-cyclopropyl)methyl)amino)methyl)-4H-pyrido[1,2-a]pyrimidin-4-one] was tested, and the IC50 was 0.2 nM.
Compound `CCNc1nc(-c2cccc(-c3cccc(-c4ccn5c(=O)c(CNC[C@@H]6CCC(=O)N6)cnc5c4)c3C)c2Cl)ccc1CNC[C@@H]1CCC(=O)N1` [Example 74, 8-(2′-Chloro-3′-(6-(ethylamino)-5-(((((S)-5-oxopyrrolidin-2-yl)methyl)amino)methyl)pyridin-2-yl)-2-methyl-[1,1′-biphenyl]-3-yl)-3-(((((S)-5-oxopyrrolidin-2-yl)methyl)amino)methyl)-4H-pyrido[1,2-a]pyrimidin-4-one] has an IC50 of 15 nM.
`Cc1c(COc2cc(OCc3cncc(C#N)c3)c(CNCCO)cc2Cl)cccc1-c1cccc(-n2cnc3cc(CNCCO)ccc3c2=O)c1` [Example 5, 5-((4-Chloro-2-(((2-hydroxyethyl)amino)methyl)-5-((3′-(7-(((2-hydroxyethyl)amino)methyl)-4-oxoquinazolin-3(4H)-yl)-2-methyl-[1,1′-biphenyl]-3-yl)methoxy)phenoxy)methyl)nicotinonitrile] gave an IC50 of 150 nM.
Compound `COc1nc(-c2cccc(-c3cccc(-c4ccn5c(=O)c(CNCCN6CCNC6=O)cnc5c4)c3Cl)c2Cl)ccc1CNC[C@@H]1CCC(=O)N1` [Example 207, (S)-8-(2,2′-Dichloro-3′-(6-methoxy-5-((((5-oxopyrrolidin-2-yl)methyl)amino)methyl)pyridin-2-yl)-[1,1′-biphenyl]-3-yl)-3-(((2-(2-oxoimidazolidin-1-yl)ethyl)amino)methyl)-4H-pyrido[1,2-a]pyrimidin-4-one] has an IC50 of 0.3 nM.
